Test results: US20260357306A1, “ONE-POT FERMENTATIVE PRODUCTION OF GLYCOLATE OR OTHER HYDROXYCARBOXYLIC ACIDS” (PHYCUS BIOTECHNOLOGIES INC., priority 2023, published 2026)

Experiments:
Assay type in all cases: biochemical
[1] = biological target: T1, Gluconobacter oxydans alcohol dehydrogenase goxADH (Gox0313), SEQ ID NO: 206 (Gluconobacter oxydans, UniProt Q5FU50); test: Alcohol dehydrogenase (EG oxidation) Michaelis-Menten kinetics, goxADH; conditions: role: substrate; relative to goxADH
T1 sequence (Q5FU50 1-343): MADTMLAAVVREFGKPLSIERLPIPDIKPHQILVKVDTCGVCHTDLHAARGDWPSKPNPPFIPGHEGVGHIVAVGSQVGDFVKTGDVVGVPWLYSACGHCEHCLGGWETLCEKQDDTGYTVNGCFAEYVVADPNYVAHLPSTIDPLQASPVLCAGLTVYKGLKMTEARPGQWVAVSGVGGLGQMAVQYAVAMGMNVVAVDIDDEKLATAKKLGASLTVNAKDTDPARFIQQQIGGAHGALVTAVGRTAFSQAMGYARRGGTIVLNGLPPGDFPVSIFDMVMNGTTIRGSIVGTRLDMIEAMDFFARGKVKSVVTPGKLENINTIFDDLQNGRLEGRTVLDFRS
Excerpt: (§1) Enzyme expression and purification: The enzymes of interest were genetically engineered in the E. coli BL21 (DE3) strain on a high copy plasmid under control of the T7 promoter. The enzymes were tagged with a hexahistidine (His-tag) sequence to facilitate for purification. Post-expression, the His-tagged enzymes were selectively bound to a nickel-charged immobilized metal affinity chromatography (IMAC) resin, exploiting the high affinity between histidine residues and nickel ions. Upon washing away non-specifically bound proteins, the His-tagged enzymes were eluted with an imidazole-containing buffer and subsequently used for enzymatic assays.
(§2) Enzyme assays: Standard enzyme characterization protocols were performed to determine the activities of the enzymes. Dehydrogenase activity against the substrates was determined using a continuous assay following the increase in absorbance at 340 nm ε340 (NADH)=6.22 mM^−1. cm^−1, and ε340 (NADPH)=6.2 mM^−1·cm^−1]. […]
(§3) The candidate alcohol dehydrogenase enzymes were next characterized for their enzymatic activity. […] Reactions were initiated by the addition of the purified enzyme and enzymatic activity was measured by monitoring the formation of the product (glycolaldehyde) over time as described in Example 8.1. […]

[2] = biological target: Mycobacterium marinum alcohol dehydrogenase mmaADH, SEQ ID NO: 215 (Mycobacterium marinum, UniProt B2HH60); test: Alcohol dehydrogenase (EG oxidation) Michaelis-Menten kinetics, mmaADH; conditions: role: substrate; relative to goxADH
Sequence of Mycobacterium marinum alcohol dehydrogenase mmaADH, SEQ ID NO: 215 (B2HH60 entry or part of it): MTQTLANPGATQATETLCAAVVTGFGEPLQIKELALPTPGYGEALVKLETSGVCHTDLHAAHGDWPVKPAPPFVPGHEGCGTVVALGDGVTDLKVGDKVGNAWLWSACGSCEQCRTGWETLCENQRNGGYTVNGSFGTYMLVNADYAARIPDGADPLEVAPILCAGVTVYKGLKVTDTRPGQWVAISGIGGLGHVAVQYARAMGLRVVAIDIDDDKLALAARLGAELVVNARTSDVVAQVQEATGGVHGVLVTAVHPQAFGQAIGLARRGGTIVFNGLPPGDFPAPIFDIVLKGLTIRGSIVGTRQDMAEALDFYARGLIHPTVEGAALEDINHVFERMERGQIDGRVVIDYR
Excerpt: as §1, §2, §3

[3] = biological target: Moraxella sp. (strain TAE123) alcohol dehydrogenase mtaADH, SEQ ID NO: 209 (Moraxella sp. TAE123, UniProt Q8GIX7); test: Alcohol dehydrogenase (EG oxidation) Michaelis-Menten kinetics, mtaADH; conditions: role: substrate; relative to goxADH
Sequence of Moraxella sp. (strain TAE123) alcohol dehydrogenase mtaADH, SEQ ID NO: 209 (Q8GIX7 whole entry): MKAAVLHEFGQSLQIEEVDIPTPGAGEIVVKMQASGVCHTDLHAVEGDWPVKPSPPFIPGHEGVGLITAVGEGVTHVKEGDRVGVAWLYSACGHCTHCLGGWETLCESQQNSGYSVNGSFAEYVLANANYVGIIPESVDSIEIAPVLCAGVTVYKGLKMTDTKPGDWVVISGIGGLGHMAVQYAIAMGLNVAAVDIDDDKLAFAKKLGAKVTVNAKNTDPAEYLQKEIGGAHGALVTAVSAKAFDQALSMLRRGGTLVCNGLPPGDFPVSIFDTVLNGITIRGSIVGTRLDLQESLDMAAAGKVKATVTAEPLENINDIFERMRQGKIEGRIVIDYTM
Excerpt: as §1, §2, §3

[4] = biological target: T2, Gluconobacter morbifer alcohol dehydrogenase gmoADH, SEQ ID NO: 207 (Gluconobacter morbifer, UniProt G6XLF0); test: Alcohol dehydrogenase (EG oxidation) Michaelis-Menten kinetics, gmoADH; conditions: role: substrate
T2 sequence (G6XLF0 1-343): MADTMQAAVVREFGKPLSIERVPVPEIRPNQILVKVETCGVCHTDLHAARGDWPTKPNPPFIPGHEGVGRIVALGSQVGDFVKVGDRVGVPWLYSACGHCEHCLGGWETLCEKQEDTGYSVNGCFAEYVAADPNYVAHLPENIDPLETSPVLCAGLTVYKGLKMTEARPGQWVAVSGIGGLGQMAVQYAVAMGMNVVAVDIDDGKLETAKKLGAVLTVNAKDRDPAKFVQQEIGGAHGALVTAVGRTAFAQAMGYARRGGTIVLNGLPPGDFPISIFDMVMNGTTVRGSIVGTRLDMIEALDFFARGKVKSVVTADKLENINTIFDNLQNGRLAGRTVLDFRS
Excerpt: as §1, §2, §3

[5] = biological target: T3, Gluconobacter diazotrophicus alcohol dehydrogenase gdiADH, SEQ ID NO: 208 (Gluconacetobacter diazotrophicus, UniProt A9HNA5); test: Alcohol dehydrogenase (EG oxidation) Michaelis-Menten kinetics, gdiADH; conditions: role: substrate
T3 sequence (A9HNA5 1-354): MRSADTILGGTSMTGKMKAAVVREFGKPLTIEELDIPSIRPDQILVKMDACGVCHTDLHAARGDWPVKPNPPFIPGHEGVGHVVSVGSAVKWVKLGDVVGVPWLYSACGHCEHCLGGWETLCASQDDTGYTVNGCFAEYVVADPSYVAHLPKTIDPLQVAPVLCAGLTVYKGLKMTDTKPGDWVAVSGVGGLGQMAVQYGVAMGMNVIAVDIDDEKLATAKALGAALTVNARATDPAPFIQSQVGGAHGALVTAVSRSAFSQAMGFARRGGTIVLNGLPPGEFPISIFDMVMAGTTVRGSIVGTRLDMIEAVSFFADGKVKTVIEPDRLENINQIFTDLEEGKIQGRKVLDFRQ
Excerpt: as §1, §2, §3

OCCO [ethylene glycol]
Relative Vmax [1]: 1.0 | Relative Vmax [2]: 1.1 | Relative Vmax [3]: 1.6 | Relative Vmax ([4]; relative to goxADH): 2.5 | maximum catalytic rate (EG turnover rate), fold higher than goxADH ([4]; versus goxADH): 2.5 fold | Relative Vmax ([5]; relative to goxADH): 3.8 | maximum catalytic rate (EG turnover rate), fold higher than goxADH ([5]; versus goxADH): 3.8 fold
